{
  "source": "the supplement of paper PMC10307832",
  "test_in_all_cases": "relative viability (nuclei count vs DMSO), 5 days (fraction); higher = more cells survive",
  "key": {"AZ505 + OSI-027": {"compound": "C1CCC(CC1)N(CCNCCC2=C3C(=C(C=C2)O)NC(=O)CO3)C(=O)CCNCCC4=CC(=C(C=C4)Cl)Cl [AZ505] + COc1cccc2cc(-c3nc([C@H]4CC[C@H](C(=O)O)CC4)n4ncnc(N)c34)[nH]c12 [OSI-027] (partner 0.5 µM)", "in_short": "(§1)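 Lung cancer cell lines were pin-tool dosed in 1536-well plates on the day after seeding, with either a lone drug or a fixed anchor-drug dose plus five library-drug doses (not always all listed) in √10 steps. Nuclei were counted on 4× images after 5 days. Relative viability is the ratio of treated-well to vehicle-well nuclei counts, with each value a median of duplicate plates.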"}, "Dactolisib + Navitoclax": {"compound": "Cn1c(=O)n(-c2ccc(C(C)(C)C#N)cc2)c2c3cc(-c4cnc5ccccc5c4)ccc3ncc21 [Dactolisib] + CC1(C)CCC(c2ccc(Cl)cc2)=C(CN2CCN(c3ccc(C(=O)NS(=O)(=O)c4ccc(N[C@H](CCN5CCOCC5)CSc5ccccc5)c(S(=O)(=O)C(F)(F)F)c4)cc3)CC2)C1 [Navitoclax] (partner 0.5 µM)", "in_short": "as §1"}, "Dactolisib + Pictilisib": {"compound": "Cn1c(=O)n(-c2ccc(C(C)(C)C#N)cc2)c2c3cc(-c4cnc5ccccc5c4)ccc3ncc21 [Dactolisib] + CS(=O)(=O)N1CCN(Cc2cc3nc(-c4cccc5[nH]ncc45)nc(N4CCOCC4)c3s2)CC1 [Pictilisib] (partner 1 µM)", "in_short": "as §1"}, "Dactolisib + OSI-027": {"compound": "Cn1c(=O)n(-c2ccc(C(C)(C)C#N)cc2)c2c3cc(-c4cnc5ccccc5c4)ccc3ncc21 [Dactolisib] + COc1cccc2cc(-c3nc([C@H]4CC[C@H](C(=O)O)CC4)n4ncnc(N)c34)[nH]c12 [OSI-027] (partner 0.5 µM)", "in_short": "as §1"}},
  "data": [
    {"cell line": "UMC-11", "values": [
      {"measurement": "relative viability", "setting": "AZ505 + OSI-027; first compound 0.08 µM", "value": 0.413},
      {"measurement": "relative viability", "setting": "AZ505 + OSI-027; first compound 0.253 µM", "value": 0.53},
      {"measurement": "relative viability", "setting": "AZ505 + OSI-027; first compound 0.8 µM", "value": 0.452},
      {"measurement": "relative viability", "setting": "AZ505 + OSI-027; first compound 2.53 µM", "value": 0.476},
      {"measurement": "relative viability", "setting": "AZ505 + OSI-027; first compound 8 µM", "value": 0.492},
      {"measurement": "relative viability", "setting": "Dactolisib + Navitoclax; first compound 0.002 µM", "value": 0.339},
      {"measurement": "relative viability", "setting": "Dactolisib + Navitoclax; first compound 0.006325 µM", "value": 0.286},
      {"measurement": "relative viability", "setting": "Dactolisib + Navitoclax; first compound 0.02 µM", "value": 0.243},
      {"measurement": "relative viability", "setting": "Dactolisib + Navitoclax; first compound 0.06325 µM", "value": 0.131},
      {"measurement": "relative viability", "setting": "Dactolisib + Navitoclax; first compound 0.2 µM", "value": 0.124},
      {"measurement": "relative viability", "setting": "Dactolisib + Pictilisib; first compound 0.002 µM", "value": 0.753},
      {"measurement": "relative viability", "setting": "Dactolisib + Pictilisib; first compound 0.006325 µM", "value": 0.727},
      {"measurement": "relative viability", "setting": "Dactolisib + Pictilisib; first compound 0.02 µM", "value": 0.606},
      {"measurement": "relative viability", "setting": "Dactolisib + Pictilisib; first compound 0.06325 µM", "value": 0.285},
      {"measurement": "relative viability", "setting": "Dactolisib + Pictilisib; first compound 0.2 µM", "value": 0.203},
      {"measurement": "relative viability", "setting": "Dactolisib + OSI-027; first compound 0.002 µM", "value": 0.432},
      {"measurement": "relative viability", "setting": "Dactolisib + OSI-027; first compound 0.006325 µM", "value": 0.537},
      {"measurement": "relative viability", "setting": "Dactolisib + OSI-027; first compound 0.02 µM", "value": 0.394},
      {"measurement": "relative viability", "setting": "Dactolisib + OSI-027; first compound 0.06325 µM", "value": 0.283},
      {"measurement": "relative viability", "setting": "Dactolisib + OSI-027; first compound 0.2 µM", "value": 0.248}
    ]}
  ]
}
